Experimental data from US8338473B2, “Derivatives of psammaplin A, a method for their synthesis and their uses for the prevention or treatment of cancer” (Centre National de la Recherche Scientifique, priority 2007, dated 2012).

Tests used:
[1] = test system: cancer cell lines A-375, DU145 and HCT-116; experiment: Dose response curves, anti-proliferative activity on cancer cell lines; assay type: cell-based; conditions: range over A-375, DU145, HCT-116; read-out: IC50 values, anti-proliferative activity on different types of cancer cell lines
Method: HCT-116, A-375 and DU-145 cells were plated at 8000 cells per well in 96-well transparent cell culture grade plates (Corning). Plates were kept in the humidified CO2 (5%) incubator overnight so that cells get attached to the bottom. […] Viable cells cleave the MTT tetrazolium ring into a dark blue formazan reaction product, whereas dead cells remain colorless. The MTT-containing medium was gently removed and DMSO was added in each well. After shaking, the plates were read in absorbance at 540 nm. All results are expressed as the average of three wells. Percent cytotoxicity was measured of each compound and represented in terms of its IC50 values.
Anti-proliferative activity on cancer cell lines A-375, DU145 and HCT-116: […]

human recombinant SIRT1 = human recombinant SIRT1 (Homo sapiens, UniProt Q96EB6); experiment: SIRT activity assay, SIRT1; assay type: biochemical
Chain of human recombinant SIRT1 (Q96EB6 whole entry): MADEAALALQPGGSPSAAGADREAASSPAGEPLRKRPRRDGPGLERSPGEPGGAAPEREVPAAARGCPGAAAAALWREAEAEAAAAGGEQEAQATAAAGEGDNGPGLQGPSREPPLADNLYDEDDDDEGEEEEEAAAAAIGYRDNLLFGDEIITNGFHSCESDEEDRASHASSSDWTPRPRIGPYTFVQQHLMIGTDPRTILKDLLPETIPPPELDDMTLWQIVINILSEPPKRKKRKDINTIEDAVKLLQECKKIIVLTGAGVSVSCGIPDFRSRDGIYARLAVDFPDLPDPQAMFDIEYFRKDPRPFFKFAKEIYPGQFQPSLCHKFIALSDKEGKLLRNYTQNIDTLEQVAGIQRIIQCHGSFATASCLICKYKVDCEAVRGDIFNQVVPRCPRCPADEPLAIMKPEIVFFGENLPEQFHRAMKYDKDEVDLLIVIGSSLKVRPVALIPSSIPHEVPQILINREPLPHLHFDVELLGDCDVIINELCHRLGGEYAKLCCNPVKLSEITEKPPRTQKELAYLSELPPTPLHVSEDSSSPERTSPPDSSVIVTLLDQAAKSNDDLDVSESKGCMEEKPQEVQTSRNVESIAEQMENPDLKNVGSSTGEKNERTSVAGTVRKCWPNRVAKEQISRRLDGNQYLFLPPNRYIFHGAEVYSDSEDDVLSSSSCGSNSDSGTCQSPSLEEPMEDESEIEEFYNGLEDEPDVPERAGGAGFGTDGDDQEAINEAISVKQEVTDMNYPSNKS
Method: (§1) FIG. 13A: % of SIRT1 and SIRT2 activity with controls, sodium suramine, a sirtuin inhibitor, and resveratrol a SIRT1 activator, and with UVI5008 at concentrations of 50 μM and 5 μM.
(§2) The SIRT activity assay was performed using the human recombinant SIRT1 and SIRT2. SIRT1 (1 U/well) or SIRT2 (5 U/well), respectively, were incubated (37° C. for 1 h) with the SIRT1/2 substrate (corresponding to a p53 acetylated peptide) in the presence of NAD^+ and various concentrations of tested compounds (sirtuins activators or inhibitors). Activity was measured as fluorescence intensity. As internal controls, sodium suramin, a sirtuin inhibitor, and resveratrol, a SIRT1 activator, have been included. The fluorescence was measured on a fluorometric reader (Inphinite 200 TECAN) with excitation set at 360 nm and emission detection set at 460 nm

human recombinant SIRT2 = human recombinant SIRT2 (Homo sapiens, UniProt Q8IXJ6); experiment: SIRT activity assay, SIRT2; assay type: biochemical
Chain of human recombinant SIRT2 (Q8IXJ6 whole entry): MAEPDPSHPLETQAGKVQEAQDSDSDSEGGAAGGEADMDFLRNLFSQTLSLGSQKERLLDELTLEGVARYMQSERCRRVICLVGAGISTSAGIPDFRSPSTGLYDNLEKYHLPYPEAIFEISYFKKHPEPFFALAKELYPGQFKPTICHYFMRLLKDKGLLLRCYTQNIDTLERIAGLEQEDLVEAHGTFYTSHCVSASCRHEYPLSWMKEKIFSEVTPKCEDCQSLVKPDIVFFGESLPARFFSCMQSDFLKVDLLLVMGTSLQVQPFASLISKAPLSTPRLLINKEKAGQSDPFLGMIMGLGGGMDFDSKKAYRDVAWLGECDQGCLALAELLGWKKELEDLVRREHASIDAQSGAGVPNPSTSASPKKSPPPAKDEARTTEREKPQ
Method: as §1, §2

HDAC1 = HDAC1 (Homo sapiens, UniProt Q13547); experiment: HDAC1 enzymatic assay (IP-HDAC1, 3H-acetyl release); assay type: biochemical; conditions: IP-HDAC1 incubated with inhibitor 24 hrs
Chain of HDAC1 (Q13547 whole entry, species assumed): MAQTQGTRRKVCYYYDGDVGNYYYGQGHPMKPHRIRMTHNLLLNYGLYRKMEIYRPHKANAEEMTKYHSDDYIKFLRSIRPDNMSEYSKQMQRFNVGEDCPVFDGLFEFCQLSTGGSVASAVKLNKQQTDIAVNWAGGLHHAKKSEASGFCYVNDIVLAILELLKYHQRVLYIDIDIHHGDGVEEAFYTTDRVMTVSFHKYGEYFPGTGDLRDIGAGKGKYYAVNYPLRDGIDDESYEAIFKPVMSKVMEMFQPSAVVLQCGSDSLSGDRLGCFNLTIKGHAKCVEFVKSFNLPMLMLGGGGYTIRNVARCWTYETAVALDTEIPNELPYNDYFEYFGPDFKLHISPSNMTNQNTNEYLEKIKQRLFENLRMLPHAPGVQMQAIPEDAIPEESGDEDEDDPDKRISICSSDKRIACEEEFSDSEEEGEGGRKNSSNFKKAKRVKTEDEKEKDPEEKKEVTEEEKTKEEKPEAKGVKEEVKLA
Method: FIG. 1: a) Cell cycle analysis of U937 cells treated for 30 hrs with the indicated compounds used at 1 and 5 μM; b) Caspase 3 apoptotic assay of the indicated compounds after 24 hrs of treatment in the U937 cells; c) Tubulin acetylation and p21 expression levels at 6 and 16 hrs after treatment with the indicated compounds; total tubulin expression levels are used for equal loading; d) Histone H3 acetylation and K9 H3 methylation expression levels at 6 and 16 hrs after treatment with the indicated compounds; total tubulin expression levels are used for equal loading; e) K9, K14, K18 histone H3 acetylation expression levels at 6 and 16 hrs after treatment with the indicated compounds; total ERKs expression levels are used for equal loading; f) HDAC1 enzymatic assay: IP-HDAC1 is incubated with the indicated inhibitors for 24 Hrs; activity is measured as ^3H-acetyl release; g) HDAC4 enzymatic assay: IP-HDAC4 is incubated with the indicated inhibitors for 24 hrs; activity is measured as ^3H-acetyl release.

[2] = test system: DNA methyltransferase (DNMT); experiment: DNMT enzymatic in vitro assay; assay type: biochemical; conditions: 1.5 and 50 μM
Method: FIG. 2: a) Methylation specific PCR for the RARβ gene after 16 and 24 hrs of treatment with the indicated compounds; b) Methylation specific PCR for the p16 gene after 24 hrs of the indicated treatments. Samples are representative of real duplicates; c) p16 expression levels in U937 cells after 24 hrs with the indicated treatments; d) DNMT enzymatic in vitro assay carried out with 1.5 and 50 μM of the indicated compounds;

TRAIL promoter = experiment: Histone H3 acetylation at the TRAIL locus (Chip and qPCR) in U937 cells; assay type: cell-based, human; conditions: U937, time course
Method: (§3) FIG. 5: a) Analysis of the histone H3 acetylation levels on the TRAIL promoter regulatory region and on the TRAIL gene first intron carried out Chip and qPCR in U937 cells after the indicated time course with UVI5008; the ‘NoAb’ represents the negative control; b) TRAIL mRNA expression after the indicated times of incubation with UVI5008; G6PDH levels have been used for equal loading; c) TRAIL protein expression levels measured by ELISA assay in U937 cells after 24 hrs treatment with UVI5008.

TRAIL = TRAIL expression (RT-PCR and ELISA) in U937 cells; assay type: cell-based, human; conditions: protein after 24 hrs
Method: as §3

[3] = test system: ex vivo AML patient blasts; experiment: Cell cycle and apoptosis in ex vivo AML patient blasts; assay type: cell-based, human
Method: FIG. 4: a) Cell cycle analyses and apoptosis carried out in ex vivo samples from AML patients identified with numbers; b) Cell cycle analysis, apoptosis and histone H3 acetylation levels of #116 AML cells after 20 hrs is of the indicated treatments.
Human leukemia cell line U937 was propagated in RPMI medium supplemented with 10% FBS (Foetal bovine serum; Hyclone) and antibiotics (100 U/mL penicillin, 100 μg/mL streptomycin and 250 ng/mL amphotericin-B). Cells were kept at the constant concentration of 200000 cells per milliliter of culture medium. For AML samples, bone marrow containing 80% to 90% leukemic blasts was purified over Ficoll. This study was approved by the Ethical Committee of the Second University of Naples.

p53 = p53 acetylation in MCF7 cells (Western blot); assay type: cell-based, human; conditions: MCF7, 6 hrs, co-treatment with Etoposide 25 μM
Method: FIG. 13B: western blot of MCF7 cells treated with etoposide alone or in presence of sirtinol (a known SIRT2 inhibitor) and with uvi5008 concentrations of 50 μM and 5 μM.
MCF7 cells (human breast cancer cells) have been growth following standard procedure and have been treated for 6 hrs with the indicated compounds in presence of 25 μM Etoposide. Total protein extracts have been run on SDS gel and blotted. Western Blot has been carried out by using the anti p53 ac382 (Abcam) following standard procedures. ERKs (Santa Cruz) have been used for equal loading control.

A-375 cells = experiment: MTT cytotoxicity assay, A-375; conditions: read-out: IC50 values, MTT cytotoxicity assay; A-375, 48 h
HCT-116 cells = experiment: MTT cytotoxicity assay, HCT-116; conditions: read-out: IC50 values, MTT cytotoxicity assay; HCT-116, 48 h

`O=C(NCCSSCCNC(=O)C(Cc1c[nH]c2ccc(Br)cc12)=NO)C(Cc1c[nH]c2ccc(Br)cc12)=NO` [UVI5008] gave an IC50 [1] of 1.5 to 3 µM, an IC50 (human recombinant SIRT1) of 8.9 µM and an IC50 (human recombinant SIRT2) of 7.8 µM. The HDAC1 inhibition (HDAC1) was “blocks HDAC1 activity nearly quantitatively”, the DNMT inhibition [2] was “nearly as active as RG108 albeit at higher concentrations” and the “H3K9 acetylation of the chromatin at the TRAIL promoter” value (TRAIL promoter) was “rapid dramatic H3K9 acetylation”. The “TRAIL expression at mRNA and protein levels” value (TRAIL) was “increased expression”, the apoptotic activity ([3]; 5 μM, two samples of patient blasts) was “showed an apoptotic activity” and the “cell cycle arrest and apoptosis (caspase 3 activation)” value ([3]; 4 ex vivo cultures, AML patients #102, #108, #109, #116) was “induced cell cycle arrest and apoptosis”. For the same compound, the “p53 acetylation levels (readout of SIRT inhibition)” value (p53) was “hyperacetylation”, the IC50 (A-375 cells) was 3.1 ± 0.5 µM and the IC50 (HCT-116 cells) was 1.8 ± 0.1 µM.
